# Results reported in patent US4678799A, “1,2(1,4)-dimethyl-4(2)-(2-hydroxyethyl)-5-nitro-imidazole antiprotozoal agents with reduced mutagenicity” (Merck & Co., Inc., priority 1984, dated 1987).
# Like-named read-outs stand apart in the source and are kept apart here.
# How the values were obtained:
# Mammalian rat hepatocyte = assay: DNA single strand breaks in mammalian rat hepatocytes (genotoxicity); settings: % relative to parent compound not containing 4-substituent
# Description: (§1) Several 5-nitroimidazoles have been tested for in vitro antiprotozoal activity against T. foetus, T. vaginalis, and G. lamblia.
# ^b Mammalian rat hepatocyte single strand DNA breaks expressed as %
# relative to parent compound not containing 4substituent.
# G. lamblia = assay: In vitro antiprotozoal activity against G. lamblia; assay type: cell-based; settings: Giardia duodenalis, read-out: Activity IC50 G. lamblia
# Description: as §1
# T. vaginalis = assay: In vitro antiprotozoal activity against T. vaginalis; assay type: cell-based; settings: Trichomonas vaginalis, read-out: Activity IC50 T. vaginalis
# Description: as §1
# T. foetus = assay: In vitro antiprotozoal activity against T. foetus; assay type: cell-based; settings: Tritrichomonas foetus, read-out: Activity IC50 T. foetus
# Description: as §1
# protozoa and bacteria = settings: U.S. Pat. No. 3,646,027; cited from earlier work
# [1] = background; cited from earlier work
# [2] = background; cited from earlier work; remark: listed apart in the source
Compound,Extent of DNA Damage (Mammalian rat hepatocyte) [%],"IC50 (G. lamblia; in vitro, G. lamblia) [µg/mL]","IC50 (T. vaginalis; in vitro, T. vaginalis) [µg/mL]","IC50 (T. foetus; in vitro, T. foetus) [µg/mL]",activity against protozoa and bacteria (protozoa and bacteria),drug residual levels [1],mutagenicity [2],IC50 (G. lamblia) [µg/mL],IC50 (T. vaginalis) [µg/mL],IC50 (T. foetus) [µg/mL]
"Cc1nc(COC(N)=O)n(C)c1[N+](=O)[O-] [III, (1,4-Dimethyl-5-nitroimidazol-2-yl)methylcarbamate]",6,25,1.9,1,,,,,,
"Cc1nc(CCO)n(C)c1[N+](=O)[O-] [IV, 1,4-Dimethyl-2-(2-hydroxyethyl)-5-nitroimidazole]",,25,12.5,1.9,,,,,,
Cc1nc(CCO)c([N+](=O)[O-])n1C [Compound V],,25,9,5.25,,,,,,
Cc1ncc([N+](=O)[O-])n1CCO [II],100,2,0.58,0.43,,,,,,
Cn1c([N+](=O)[O-])cnc1COC(N)=O [I],100,,,,potent,high drug residual levels,strong mutagenicity,0.9,0.54,0.42
